Results on 2 molecules are retold here after patent US12428405B2, “Chalcone-based chemotherapeutic compound for triple negative breast cancer” (QATAR UNIVERSITY, priority 2019, dated 2025).

Data set [1] relates to MCF-7. Description: MTT cell viability. Format: cell-based. As to conditions: for IC50: Homo sapiens, MCF7, 48 hours of treatment, Mean ± SEM (n = 3 × 3); for SI of HNME/MCF-7 (selective index): ratio of LD50 on HNME-E6/E7 to IC50 on MCF-7. The source says: (§1) Breast cancer cell lines including MDA-MB-231, MDA-MB-468, MCF-7, BT-474 and SK-BR-3 were obtained from the American Type Tissue Culture (ATCC) and maintained in complete cell culture media Gibco® RPMI 1640 (Thermo Fisher Scientific, USA) supplemented with 10% fetal bovine serum (PAN-Biotech, Aidenbach, Bavaria, Germany) and 1% penicillin/streptomycin (1×) antibiotics (Thermo Fisher Scientific, USA). Human normal mammary epithelial cells immortalized by E6/E7 of HPV type 16 (HNME-E6/E7) were used to predict potential safety of the compounds (125, 126). They were maintained in Gibco® Keratinocyte-SFM (1×) media. All cells were incubated in 5% CO2 at 37° C. incubator. Cells were maintained by routine sub-culturing in T-75 and T25 filtered tissue culture flasks.
(§2) MDA-MB-231, MDA-MB-468, MCF-7, BT-474 and HNME-E6/E7 cells were seeded overnight in 96-well plates at a concentration of 8000-10,000/well depending on their pre-calculated cell density and were incubated overnight. At 24 hours, media was replaced with fresh one. The treatment wells included 6-8 different concentrations of the compounds ranging between 0.25 μM-160 μM. At 48 hours post treatment, 10 μL MTT solution was added to each well followed by 4 hours of incubation. Afterwards, media with MTT was removed from all wells and 50 μl DMSO was added to each well to dissolve the crystals. This was followed by 5 minutes incubation. Absorbance was recorded at a wavelength of 562 nm after 3 minutes of shaking using Infinite 200 PRO Microplate Reader (Tecan, Switzerland). Percentage of viable cells was calculated using the following formula: […]

In data set [2] the test system is MDA-MB-231. Nature of the data set: MTT cell viability. In kind it is cell-based. To be noted: for IC50: Homo sapiens, MDA-MB-231, 48 hours of treatment, Mean ± SEM (n = 3 × 3); for SI of HNME/MDA-231 (selective index): ratio of LD50 on HNME-E6/E7 to IC50 on MDA-MB-231.
Description: as §1, §2

The subject of data set [3] is MDA-MB-468. Nature of the data set: MTT cell viability. In kind it is cell-based. To be noted: for IC50: Homo sapiens, MDA-MB-468, 48 hours of treatment, Mean ± SEM (n = 3 × 3); for SI of HNME/MDA-468 (selective index): ratio of LD50 on HNME-E6/E7 to IC50 on MDA-MB-468.
Description: as §1, §2

For data set [4], the system named is HNME-E6/E7. Nature of the data set: MTT cell viability on immortalized normal mammary epithelial cells. Format: cell-based, human. As to conditions: normal cell line; 48 hours of treatment; Mean ± SEM (n = 3 × 3).
Description: as §1
MDA-MB-231, MDA-MB-468, MCF-7, BT-474 and HNME-E6/E7 cells were seeded overnight in 96-well plates at a concentration of 8000-10,000/well depending on their pre-calculated cell density and were incubated overnight. At 24 hours, media was replaced with fresh one. The treatment wells included 6-8 different concentrations of the compounds ranging between 0.25 μM-160 μM. […] Absorbance was recorded at a wavelength of 562 nm after 3 minutes of shaking using Infinite 200 PRO Microplate Reader (Tecan, Switzerland). Percentage of viable cells was calculated using the following formula: […]

Data set [5] has as its system MDA-MB-231. Description: Soft agar colony formation assay. As to conditions: for less colonies as compared to untreated: 5 and 10 μM, 21 days post treatment; for colony formation (in words): MDA-MB-231, soft agar. In kind it is cell-based.
Data set [6] has as its system MDA-MB-468. Nature of the data set: Soft agar colony formation assay. Format: cell-based. As to conditions: for less colonies as compared to untreated: 5 and 10 μM, 14 days post treatment.
Data set [7] has as its system MCF-7. Nature of the data set: Soft agar colony formation assay. In kind it is cell-based. To be noted: for less colonies as compared to untreated: 5 and 10 μM, 14 days post treatment; for colony formation (in words): MCF-7, soft agar.
Data set [8] deals with MCF-7. Nature of the data set: Cell cycle analysis (flow cytometry). Format: cell-based. As to conditions: 48 h; 10 μM of compound 13, 5 μM of compound 14. On the procedure: (§3) The MDA-MB-231, MDA-MB-468 and MCF-7 cell lines were seeded on 6-well plates at a concentration of 200,000 cells per well and were maintained in culture supplemented with 10% fetal bovine serum for 8-10 hours. The same day, media was removed and cells were incubated overnight with serum free media. Second day, cells were treated with the compounds. Adherent and floating cell populations were harvested at 48 hours after treatment with different concentrations of the compounds and counted.
(§4) Afterward, cells were washed with cold PBS once, centrifuged at 4° C. and fixed with 1.5 ml cold 70% ethanol added drop wise while slowly vortexing. Samples were then stored at […] Following fixation, cells were pelleted and washed with ice-cold PBS. Equal aliquots were collected and resuspended in 300 μl of Tali® Cell Cycle Kit and incubated at 37 C. with slow shaking speed for 30 minutes in the dark. Accuri C6 flow cytometer (BD Biosciences, USA) was used to analyze the cells. The FlowJo V10 software was used to process and evaluate the results.

In data set [9] the test system is MDA-MB-231. Description: Cell cycle analysis (flow cytometry). Format: cell-based. As to conditions: 48 hours. On the procedure: as §3, §4
For data set [10], the system named is MDA-MB-468. Description: Cell cycle analysis (flow cytometry). Format: cell-based. To be noted: 48 hours. On the procedure:
as §3, §4

In data set [11] the test system is MCF-7. Nature of the data set: Matrigel invasion assay. In kind it is cell-based. To be noted: 24 hours; 13 (10 μM), 14 (5 μM). On the procedure:
(§5) Matrigel-coated invasion chamber plates (CORNING, USA) were used to study the invasive property of MDA-MB-231, MDA-MB-468 and MCF-7 cancer cells. Cells were seeded at a concentration of 5×10^4 cells/0.5 ml in each upper chamber well and maintained in RPMI serum free medium. Complete RPMI medium with 10% FBS was added to each base well at 600 μl/well to act as an attractant to the cells in the upper chamber. After 24 hours, cells were fixed using a 3.70% formaldehyde as a fixator for 5 minutes. […] Thereafter, cells were stained using 5% crystal violet dissolved in ethanol and were incubated for 5 minutes followed by several rounds of washing with PBS. Cells were then visualized under the microscope and 4 pictures/well were taken from different zones. ImageJ software was used to quantify the number of invaded cells in each well.

For data set [12], the system named is MDA-MB-231. Description: Matrigel invasion assay. To be noted: 24 hours; 13 (10 μM), 14 (5 μM). Format: cell-based. On the procedure:
as §5

In data set [13] the test system is MDA-MB-468. Description: Matrigel invasion assay. In kind it is cell-based. To be noted: 24 hours; 13 (10 μM), 14 (5 μM). On the procedure:
as §5

Data set [14] deals with Chorioallantoic membrane (CAM) of the chicken embryos. Nature of the data set: Chorioallantoic membrane (CAM) angiogenesis assay. In kind it is in vivo. As to conditions: treated at embryonic day 4, read at day 8; 2 μl of 5 mM stock under coverslip. On the procedure: Fertilized white Leghorn chicken embryos (Arab Qatari for Poultry Production, Qatar) were purchased and incubated at 60% humidity at 37° C. in MultiQuip incubator. Ethics approval was obtained from Qatar University-Institutional Bio-safety committee. The embryos were treated in ovo at embryonic day 4 with three of the synthesized chalcones (5, 13 and 14) compared to DMSO treated controls. Briefly, a small cut was made at the top of the shells of the eggs and each treatment was added under a round coverslip at 2 μl of 5 mM stock solutions. Microscopic pictures were taken at embryonic day 8. Embryos treated with compounds 13 and 14 were sacrificed at embryonic day 9 for clinical observations. Quantification of blood vessels was performed manually and the different treatment groups were compared.

The subject of data set [15] is HNME-E6/E7. Nature of the data set: Morphological examination of normal cells. Format: cell-based, human. To be noted: 5 μM; 48 hours. On the procedure:
MCF-7, MDA-MB-231, MDA-MB-468 and HNME-E6/E7 cells were seeded in a 6-well plates at a concentration of 200,000-300,000 cells/well and were incubated overnight. After incubation, cells were treated with different compounds.

Entries after “also recorded” stand apart in the source; their conditions may differ.

In the case of `CS(=O)(=O)c1ccc(C(=O)/C=C/c2ccc(N(CCCl)CCCl)cc2)cc1` [Compound 13, (E)-3-(4-(Bis(2-chloroethyl)amino)phenyl)-1-(4-(methylsulfonyl)phenyl) prop-2-en-1-one], the IC50 in the data set with MCF-7 [1] stood at 8.95 ± 1.46 µM; in the data set with MDA-MB-231 [2] it was 9.67 ± 0.68 µM; with MDA-MB-468 [3], 9.29 ± 0.68 µM. Further, the “SI of HNME/MCF-7 (selective index)” value in the data set with MCF-7 [1] worked out at 3.61. Besides, the “SI of HNME/MDA-231 (selective index)” value in the data set on MDA-MB-231 [2] is reported as 3.34. In addition, the “SI of HNME/MDA-468 (selective index)” value in the data set with MDA-MB-468 [3] came to 3.48. Also, the “LD50 HNME-E6/E7” value with HNME-E6/E7 [4] stood at 32.32 ± 3.93 µM. Further, the “less colonies as compared to untreated” value with MDA-MB-231 [5], in the data set on MDA-MB-468 [6] and with MCF-7 [7] was approximately 100% throughout. For the same molecule, the “colony formation (in words)” value in the data set with MDA-MB-231 [5] is “better effects on MDA-MB-231 as compared to colchicine and paclitaxel”; in the data set with MCF-7 [7], “better effects on MCF-7 as compared to colchicine”. Further, the “cell cycle arrest (in words)” value in the data set with MCF-7 [8] was “mainly noticed in the invasive cell lines but not in the noninvasive, MCF-7, cells”. The “cell cycle arrest at the S phase (cells percentage)” value in the data set with MDA-MB-231 [9] (10 μM of compound 13) turned out to be 28.7±1.87%; in the data set on MDA-MB-468 [10] (10 μM of compound 13) it was 46.8±5.39%. The “reduction of cancer cells invasion vs DMSO control” value was 45.70% in the data set with MCF-7 [11], 79.57% with MDA-MB-231 [12] and 48.45% in the data set on MDA-MB-468 [13]. The “inhibition of blood vessels development vs control” value in [14] was 55.6±6.04%. The “cell morphology of normal cells” value in the data set with HNME-E6/E7 [15] was “induced morphological changes”.
On to `COc1cccc(C(=O)/C=C/c2ccc(N(CCCl)CCCl)cc2)c1` [Compound 14, (E)-3-(4-(Bis(2-chloroethyl)amino)phenyl)-1-(3-methoxyphenyl) prop-2-en-1-one], for which the values for the half-inhibitory concentration (IC50) in the data set on MCF-7 [1], in the data set with MDA-MB-231 [2] and in the data set on MDA-MB-468 [3] were 3.96 ± 1.87 µM, 6.3 ± 0.78 µM and 8.73 ± 0.67 µM, respectively. Further, the “SI of HNME/MCF-7 (selective index)” value in the data set on MCF-7 [1] is recorded as 5.22. In the data set with MDA-MB-231 [2], the “SI of HNME/MDA-231 (selective index)” value was 3.2. Further, the “SI of HNME/MDA-468 (selective index)” value in the data set with MDA-MB-468 [3] was 2.36. In the data set on HNME-E6/E7 [4], the “LD50 HNME-E6/E7” value is 20.67 ± 1.50 µM. Besides, the “less colonies as compared to untreated” value in the data set on MDA-MB-231 [5], in the data set with MDA-MB-468 [6] and in the data set on MCF-7 [7] was approximately 100% throughout. In addition, the “colony formation (in words)” value in the data set with MDA-MB-231 [5] was “completely inhibited; also recorded: better effects on MDA-MB-231 as compared to colchicine and paclitaxel”; with MDA-MB-468 [6] (MDA-MB-468, soft agar), “completely inhibited”; in the data set with MCF-7 [7], “completely inhibited; also recorded: better effects on MCF-7 as compared to colchicine”. In addition, the “cell cycle arrest (in words)” value in the data set on MCF-7 [8] is given as “mainly noticed in the invasive cell lines but not in the noninvasive, MCF-7, cells”. For the same molecule, the “cells arrested at the G2/M phase (cells percentage)” value amounted to 47.27±7.869% in the data set on MDA-MB-231 [9] (5 μM of compound 14) and 66.45±4.25% in the data set on MDA-MB-468 [10] (5 μM of compound 14). In addition, the “reduction of cancer cells invasion vs DMSO control” value in the data set on MCF-7 [11] is 57.26%; in the data set on MDA-MB-231 [12], 82.54%; in the data set with MDA-MB-468 [13], 59.28%. The “inhibition of blood vessels development vs control” value in [14] is 60.20±8.47%. In the data set with HNME-E6/E7 [15], the “cell morphology of normal cells” value was “induced morphological changes”.
